For assay [1], the target named is T1, Androgen receptor (Mus musculus, UniProt P19091).
T1 sequence (P19091 whole entry): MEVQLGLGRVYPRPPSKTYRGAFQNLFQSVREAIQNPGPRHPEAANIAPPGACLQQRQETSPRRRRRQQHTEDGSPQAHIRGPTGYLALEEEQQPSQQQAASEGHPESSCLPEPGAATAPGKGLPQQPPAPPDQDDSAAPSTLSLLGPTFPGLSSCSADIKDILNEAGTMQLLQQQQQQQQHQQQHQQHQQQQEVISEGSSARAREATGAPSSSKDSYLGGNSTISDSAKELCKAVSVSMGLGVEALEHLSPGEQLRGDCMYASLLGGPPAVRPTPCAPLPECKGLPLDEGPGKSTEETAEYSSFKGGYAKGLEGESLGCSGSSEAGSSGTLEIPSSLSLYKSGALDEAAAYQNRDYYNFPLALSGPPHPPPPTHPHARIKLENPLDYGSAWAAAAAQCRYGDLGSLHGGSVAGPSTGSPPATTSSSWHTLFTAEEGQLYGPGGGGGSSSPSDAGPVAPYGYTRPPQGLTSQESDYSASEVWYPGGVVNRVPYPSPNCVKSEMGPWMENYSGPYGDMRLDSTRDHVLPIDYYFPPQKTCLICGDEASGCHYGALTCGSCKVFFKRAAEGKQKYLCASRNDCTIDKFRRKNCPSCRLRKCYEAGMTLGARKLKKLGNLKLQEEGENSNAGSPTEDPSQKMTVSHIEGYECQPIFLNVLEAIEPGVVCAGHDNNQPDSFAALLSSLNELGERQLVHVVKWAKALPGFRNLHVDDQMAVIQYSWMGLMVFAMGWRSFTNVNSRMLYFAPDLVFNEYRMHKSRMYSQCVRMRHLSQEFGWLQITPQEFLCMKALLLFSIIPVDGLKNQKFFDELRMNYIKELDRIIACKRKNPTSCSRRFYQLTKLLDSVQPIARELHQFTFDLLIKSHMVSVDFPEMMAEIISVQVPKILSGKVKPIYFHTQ
In words: Effective concentration against Androgen receptor.

For assay [2], the target named is T1, Androgen receptor. The experiment in a line: Inhibitory activity against Androgen receptor.
For assay [3], the target named is T2, Glucocorticoid receptor (Homo sapiens, UniProt P04150).
T2 sequence (P04150 whole entry): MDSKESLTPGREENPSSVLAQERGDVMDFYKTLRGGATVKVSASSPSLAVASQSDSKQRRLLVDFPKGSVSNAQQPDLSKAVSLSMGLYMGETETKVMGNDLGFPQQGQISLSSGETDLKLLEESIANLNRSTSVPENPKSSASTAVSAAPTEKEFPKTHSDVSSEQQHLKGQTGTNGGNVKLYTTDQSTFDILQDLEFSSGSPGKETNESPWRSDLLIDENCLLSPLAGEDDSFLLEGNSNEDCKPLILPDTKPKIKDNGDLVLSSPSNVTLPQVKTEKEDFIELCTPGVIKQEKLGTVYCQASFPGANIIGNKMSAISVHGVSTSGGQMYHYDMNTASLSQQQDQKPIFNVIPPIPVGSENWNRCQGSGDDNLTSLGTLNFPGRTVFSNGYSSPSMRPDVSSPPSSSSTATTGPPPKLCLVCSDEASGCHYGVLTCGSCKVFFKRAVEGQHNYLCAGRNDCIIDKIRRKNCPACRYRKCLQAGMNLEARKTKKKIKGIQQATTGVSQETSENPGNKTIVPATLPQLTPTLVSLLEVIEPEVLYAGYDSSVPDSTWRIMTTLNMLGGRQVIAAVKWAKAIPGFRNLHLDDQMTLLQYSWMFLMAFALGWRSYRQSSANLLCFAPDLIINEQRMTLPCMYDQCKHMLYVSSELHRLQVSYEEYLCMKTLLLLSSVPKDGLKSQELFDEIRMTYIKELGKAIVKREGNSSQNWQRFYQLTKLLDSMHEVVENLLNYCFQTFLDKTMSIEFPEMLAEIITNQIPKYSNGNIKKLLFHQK
The experiment in a line: Effective concentration against GR (glucocorticoid receptor).

For assay [4], the target named is T2, Glucocorticoid receptor. In words: Inhibitory activity against GR (glucocorticoid receptor).
The target of assay [5] is T3, Progesterone receptor (Homo sapiens, UniProt P06401).
T3 sequence (P06401 whole entry): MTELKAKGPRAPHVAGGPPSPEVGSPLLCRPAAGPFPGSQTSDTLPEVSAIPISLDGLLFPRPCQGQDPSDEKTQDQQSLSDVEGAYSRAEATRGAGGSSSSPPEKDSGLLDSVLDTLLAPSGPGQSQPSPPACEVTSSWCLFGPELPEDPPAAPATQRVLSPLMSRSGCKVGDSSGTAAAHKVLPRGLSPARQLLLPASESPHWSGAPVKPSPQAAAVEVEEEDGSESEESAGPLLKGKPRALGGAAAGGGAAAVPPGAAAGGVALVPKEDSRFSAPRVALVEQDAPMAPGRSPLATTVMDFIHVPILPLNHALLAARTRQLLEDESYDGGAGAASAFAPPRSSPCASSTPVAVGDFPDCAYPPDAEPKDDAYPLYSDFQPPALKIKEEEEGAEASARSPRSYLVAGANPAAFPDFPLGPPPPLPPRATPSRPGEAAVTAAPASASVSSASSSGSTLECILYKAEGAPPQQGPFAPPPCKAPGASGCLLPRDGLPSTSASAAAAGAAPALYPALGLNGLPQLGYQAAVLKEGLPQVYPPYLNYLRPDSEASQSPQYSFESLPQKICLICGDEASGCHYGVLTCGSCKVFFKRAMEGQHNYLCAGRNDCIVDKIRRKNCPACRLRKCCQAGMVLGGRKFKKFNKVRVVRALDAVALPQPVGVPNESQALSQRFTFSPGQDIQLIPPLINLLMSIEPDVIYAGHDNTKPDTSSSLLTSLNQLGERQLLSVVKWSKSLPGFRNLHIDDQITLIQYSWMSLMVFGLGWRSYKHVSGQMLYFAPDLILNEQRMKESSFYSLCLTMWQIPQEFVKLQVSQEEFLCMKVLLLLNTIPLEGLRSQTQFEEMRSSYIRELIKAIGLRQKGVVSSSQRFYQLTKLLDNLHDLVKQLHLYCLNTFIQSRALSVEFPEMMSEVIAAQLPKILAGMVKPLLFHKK
In words: Effective concentration against PR (progesterone receptor).

The target of assay [6] is T3, Progesterone receptor. The experiment in a line: Inhibition of [3H]P4 to progesterone receptor (PR) of human T47D breast carcinoma cells. The class given is cell-based.
The target of assay [7] is T3, Progesterone receptor. In words: Effective concentration on alkaline phosphatase activity in human T47D breast carcinoma cell line. In kind it is functional, cell-based.

What is called EC50 is the concentration giving half of the maximal effect. For orientation: IC50 means the point on the concentration scale where inhibition reaches its midpoint. A higher IC50 goes with weaker potency in that assay.

Turning to `CC1(C)OC(=S)Nc2ccc(-c3csc(C#N)c3)cc21`, the EC50 at Androgen receptor [1] was > 10000 nM; on Glucocorticoid receptor [3], > 10000 nM; at Progesterone receptor [5], 0.38 nM; on Progesterone receptor [7], 0.4 nM. The IC50 on Androgen receptor [2] was 379 nM; against Glucocorticoid receptor [4], 1320 nM; against Progesterone receptor [6], 3 nM.
